Where a name gives a salt, the structure may show the parent alone. Read-outs that look alike come from different tables or passages of the source.
Key:
[1] = test system: compound 48/80-induced lethality; test: protection of rats from compound 48/80-induced lethality; format: in vivo, male Wistar rats; settings: Rattus norvegicus, sc, 4 h, s.c., compound 48/80 0.5 mg/kg i.v. 1 hour after treatment, 50% protected against lethality, read-out: 48/80-test ED50
Excerpt: PROTECTION OF RATS FROM COMPOUND 48/80-INDUCED LETHALITY
Compound 48/80, a mixture of oligomers obtained by condensation of 4-methoxy-N-methyl-phenethylamine and formaldehyde has been described as a potent histamine releasing agent (Int. Arch. Allergy, 13, 336 (1958)). The protection from compound 48/80-induced lethal circulatory collapse appears to be a simple way of evaluating quantitatively the antihistaminic activity of test-compounds. Male rats of an inbred Wistar strain, weighing 240-260 g were used in the experiment. After overnight starvation the rats were transferred to conditioned laboratories (temp.=21±1° C., relative humidity=65±5%). The rats were treated subcutaneously or orally with a test compound or with the solvent (NaCl solution, 0.9%). One hour after treatment there was injected intravenously compound 48/80, freshly dissolved in water, at a dose of 0.5 mg/kg (0.2 ml/100 g of body weight). In control experiments, wherein 250 solvent-treated animals were injected with the standard dose of compound 48/80 not more than 2.8% of the animals survived after 4 hours, is therefore considered to be a safe criterion of a protective effect of drug administration.
In this connection the ED50 -values are the minimal doses of the concerned compounds, administered in the subcutaneous way, whereby 50% of the rats are protected against compound 48/80-induced lethality.

[2] = test system: compound 48/80-induced gastric lesions; test: gastric lesion test: lesions induced by compound 48/80; format: in vivo; settings: Rattus norvegicus, read-out: gastric lesion test ED50
[3] = test system: serotonin-induced contraction of rat caudal artery; test: antagonistic activity on the effect of serotonin on the caudal artery of the rat; settings: serotonin 40 ng/ml; minimal concentration reducing contraction amplitude to at least 50% of normal; 5 min
Description: ANTAGONISTIC ACTIVITY ON THE EFFECT OF SEROTONIN ON THE CAUDAL ARTERY OF THE RAT
Caudal arteries from fasted male rats (210-235 g) were used in the test. Two helical strips having a length of 5-6 cm and a width of 2 mm. were obtained from each artery and mounted vertically in a 100 ml organ bath containing an oxygenated Krebs-Henseleit solution. Submaximal contractions of the arterial strips were produced by adding single doses of serotonin (40 ng/ml) to the organ bath for 2 minutes with each time an interval of 10 minutes. The amplitude of the contraction was measured before and 5 minutes after adding the drug. After washing out, the agonist was added again three times in order to see whether the contraction was restored and normalized.

[4] = test system: norepinephrine-induced mortality; test: norepinephrine (NOR) test in rats, part of the combined APO-TRY-NOR test; format: in vivo, male Wistar rats; settings: Rattus norvegicus, sc, 2 h, norepinephrine 1.25 mg/kg i.v. at 120 min
Description: THE COMBINED APOMORPHINE (APO)-, TRYPTAMINE (TRY)- AND NOREPINEPHRINE (NOR) TEST IN RATS
The experimental animals used in this test were adult male Wistar rats (weight 240±10 g). After an overnight fast, the animals were treated subcutaneously (1 ml/100 g) with an aqueous solution of the compound under investigation (time=zero) and put in isolated observation cages. […] At the end of this 1 hour period (time=90 minutes) the same animals were injected intravenously with 40 mg/kg of tryptamine (TRY) and the presence of the typical tryptamine-induced bilateral tonic seizures was noted. Two hours after pretreatment (time=120 minutes) finally, the same animals were challenged with 1.25 mg/kg intravenously of norepinephrine (NOR) and possible mortality was looked for up to 60 minutes later.
The table 1 gives the ED50 -values of a number of the compounds under consideration. As used herein, the ED50 -value represents the dose which protects 50% of the animals from apomorphine-, tryptamine- or norepinephrine-induced phenomena.

[5] = test system: apomorphine-induced emesis; test: apomorphine test in dogs (APO-dog); format: in vivo; settings: Canis lupus familiaris, sc; beagle dogs; apomorphine 0.31 mg/kg s.c. 1 hour after compound; protection from emesis
[6] = test system: apomorphine-induced phenomena: agitation and stereotypic chewing; test: apomorphine (APO) test in rats, part of the combined APO-TRY-NOR test; format: in vivo, male Wistar rats; settings: Rattus norvegicus, sc, 0.5 h, read-out: ED50 (APO)-rat
[7] = test system: tryptamine-induced bilateral tonic seizures; test: tryptamine (TRY) test in rats, part of the combined APO-TRY-NOR test; format: in vivo, male Wistar rats; settings: Rattus norvegicus, sc, 1.5 h, tryptamine 40 mg/kg i.v. at 90 min
[8] = rats, compound 48/80, distension of the stomach completely absent in 50% of rats
[9] = s.c., rats, apomorphine 1.25 mg/kg i.v. 30 min after compound

Structure (SMILES) | ED50 [1] [mg/kg] | ED50 [2, 8] [mg/kg] | caudal artery rat ED50 [3] [ng/mL] | ED50 [4] [mg/kg] | ED50 [5] [mg/kg] | ED50 [6, 9] [mg/kg] | ED50 [7] [mg/kg] | ED50 [6] [mg/kg] | ED50 [2] [mg/kg]
Cc1nc2n(c(=O)c1CCN1CC[C@H](c3c[nH]c4ccccc34)[C@H](C)C1)CCS2 (relative stereo) [compound 23, cis-2,3-dihydro-6-[2-[4-(1H-indol-3-yl)-3-methyl-1-piperidinyl]ethyl]-7-methyl-5H-thiazolo[3,2-a]pyrimidin-5-one] | 2.5 | 2.5 |  |  |  |  |  |  | 
Cc1nc2n(c(=O)c1CCN1CCC(C(=O)c3ccc(F)cc3)CC1)CCS2 [compound 1, 6-[2-[4-(4-fluorobenzoyl)-1-piperidinyl]ethyl]-2,3-dihydro-7-methyl-5H-thiazolo[3,2-a]pyrimidin-5-one] | 0.63 | 0.0005 | 0.32 | 0.63 | 0.03 | 0.31 | 0.16 |  | 
Cc1nc2n(c(=O)c1CCN1CCC(C(=O)c3ccc(F)cc3)CC1)CCCS2 [compound 2, 7-[2-[4-(4-fluorobenzoyl)-1-piperidinyl]ethyl]3,4-dihydro-8-methyl-2H,6H-pyrimido[2,1-b][1,3]thiazin-6-one] | 0.16 | 0.01 | 0.32 | 1.25 | 0.03 |  | 0.63 | 0.31 | 
Cc1nc2n(c(=O)c1CCN1CCC(c3c[nH]c4ccccc34)CC1)CCCS2 [compound 3, 3,4-dihydro-7-[2-[4-(1H-indol-3-yl)-1-piperidinyl]ethyl]-8-methyl-2H,6H-pyrimido[2,1-b][1,3]thiazin-6-one] | 0.04 | 0.02 | 0.32 | 1.25 | 0.015 |  | 0.63 | 0.63 | 
Cc1nc2scc(C)n2c(=O)c1CCN1CCC(C(=O)c2ccc(F)cc2)CC1 [compound 4, 6-[2-[4-(4-fluorobenzoyl)-1-piperidinyl]ethyl]-3,7-dimethyl-5H-thiazolo[3,2-a]pyrimidin-5-one] | 0.31 | 0.01 | 0.32 | 1.25 |  |  | 0.005 | 0.16 | 
Cc1nc2sccn2c(=O)c1CCN1CCC(C(=O)c2ccc(F)cc2)CC1 [compound 5, 6-[2-[4-(4-fluorobenzoyl)-1-piperidinyl]ethyl]-7-methyl-5H-thiazolo[3,2-a]pyrimidin-5-one] | 0.31 | 0.005 | 0.14 | 0.63 | 0.015 | 0.02 | 0.01 |  | 
Cc1nc2sc3ccccc3n2c(=O)c1CCN1CCC(C(=O)c2ccc(F)cc2)CC1 [compound 6, 3-[2-[4-(4-fluorobenzoyl)-1-piperidinyl]ethyl]-2-methyl-4H-pyrimido[2,1-b]benzothiazol-4-one] | 0.16 |  | 0.14 | 0.31 | 1.8 | 5 | 0.02 |  | 0.08
Cc1nn2c(=O)c(CCN3CCC(C(=O)c4ccc(F)cc4)CC3)c(C)nc2s1 [compound 7] | 0.16 | 0.0025 | 1.25 | 0.63 | 0.5 |  | 0.31 | 2.5 | 
Cc1nc2sc3c(n2c(=O)c1CCN1CCC(C(=O)c2ccc(F)cc2)CC1)CCC3 [compound 8, 3-[2-[4-(4-fluorobenzoyl)-1-piperidinyl]ethyl]7,8-dihydro-2-methyl-4H,6H-cyclopenta[4,5]thiazolo[3,2-a]pyrimidin-4-one] | 0.31 |  | 0.32 | 0.63 | 0.25 |  | 0.31 | 1.25 | 0.04
Cc1nc2sccn2c(=O)c1CCN1CCC(C)(C(=O)c2ccc(F)cc2)CC1 [compound 9, monohydrochloride] | 0.16 | 0.005 | 0.32 | 1.25 | 0.25 |  | 0.16 | 0.63 | 
Cc1nc2sccn2c(=O)c1CCN1CCC(C(=O)c2ccc(F)cc2)(c2ccccc2)CC1 [compound 10, 6-[2-[4-(4-fuorobenzoyl)-4-phenyl-1-piperidinyl]ethyl]-7-methyl-5H-thiazolo-[3,2-a]pyrimidin-5-one] |  | 2.5 |  |  |  |  |  |  | 
Cc1nc2scc(C)n2c(=O)c1CCN1CCC(c2c[nH]c3ccccc23)CC1 [compound 11, 6-[2-[4-(1H-indol-3-yl)-1-piperidinyl]ethyl]-3,7-dimethyl-5H-thiazolo[3,2-a]pyrimidin-5-one] | 0.08 | 0.0025 | 0.14 | 0.16 | 0.004 | 0.08 | 0.04 |  | 
Cc1nc2sc3ccccc3n2c(=O)c1CCN1CCC(c2c[nH]c3ccccc23)CC1 [compound 13, 3-[2-[4-(1H-indol-3-yl)-1-piperidinyl]ethyl]-2-methyl-4H-pyrimido[2,1-b]benzothiazol-4-one] | 0.63 | 0.04 | 0.32 | 0.16 |  |  | 0.31 | 1.25 | 
Cc1nn2c(=O)c(CCN3CCC(c4c[nH]c5ccccc45)CC3)c(C)nc2s1 [compound 14, 6-[2-[4-(1H-indol-3-yl)-1-piperidinyl]ethyl]-2,7-dimethyl-5H-1,3,4-thiadiazolo[3,2-a]pyrimidin-5-one] | 0.04 | 0.04 | 0.56 | 0.63 |  | 5 | 1.25 |  | 
Cc1nc2n(c(=O)c1CCN1CCC(c3c[nH]c4ccccc34)CC1)CCS2 [compound 15, 2,3-dihydro-6-[2-[4-(1H-indol-3-yl)-1-piperidinyl]-ethyl]-7-methyl-5H-thiazolo[3,2-a]pyrimidin-5-one] | 0.02 | 0.04 | 0.31 | 1.25 | 0.008 |  |  | 1.25 | 
Cc1nc2scc(C)n2c(=O)c1CCN1CCC(c2c[nH]c3ccc(F)cc23)CC1 [compound 20, 6-[2-[4-(5-fluoro-1H-indol-3-yl)-1-piperidinyl]ethyl]-3,7-dimethyl-5H-thiazolo[3,2-a]pyrimidin-5-one] | 0.63 | 0.31 | 0.31 |  | 0.12 |  | 0.63 | 1.25 | 
Cc1nc2sccn2c(=O)c1CCN1CCC(c2c[nH]c3ccc(Cl)cc23)CC1 [compound 21, 6-[2-[4-(5-chloro-1H-indol-3-yl)-1-piperidinyl]ethyl]-7-methyl-5H-thiazolo[3,2-a]pyrimidin-5-one] | 2.5 |  |  | 1.25 |  |  |  | 0.63 | 1.25
Cc1nc2sc(C)c(C)n2c(=O)c1CCN1CCC(C(=O)c2ccc(F)cc2)CC1 [compound 24, 6-[2-[4-(4-fluorobenzoyl)-1-piperidinyl]ethyl]-2,3,7-trimethyl-5H-thiazolo[3,2-a]pyrimidin-5-one] | 0.08 | 0.01 |  | 0.63 | 0.12 | 0.63 | 0.04 |  | 

— US4548938A, “5-H-1,3,4-thiadiazolo[3,2-a]pyrimidin-5-one compounds” (Janssen Pharmaceutica N.V., priority 1985, dated 1985)
